Format in all cases: biochemical
Assay [1] has as its target T1, AKT1 (Homo sapiens, UniProt P31749).
T1 construct: purchased SignalChem
Put plainly: AKT Kinase Assay (IMAP fluorescent polarisation) vs AKT1. The conditions noted are these: activated AKT1, FAM Crosstide substrate. The essentials: (§1)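 IMAP fluorescence-polarisation read-out (485/528 nm) of 5′FAM-Crosstide phosphorylation; IC50 fitted by non-linear regression from % inhibition against vehicle. Fourteen-point half-log compound dilutions sat 45 min at room temperature with activated isoform at linear-range amount. ATP and substrate followed for 1 h, then a 1 h binding-reagent stop.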

For assay [2], the target named is T2, AKT2 (Homo sapiens, UniProt P31751).
T2 construct: purchased SignalChem
In words: AKT Kinase Assay (IMAP fluorescent polarisation) vs AKT2. To be noted: activated AKT2, FAM Crosstide substrate. The procedure, abridged:
as §1

The target in assay [3] is T3, AKT3 (Homo sapiens, UniProt Q9Y243).
T3 construct: purchased SignalChem
Put plainly: AKT Kinase Assay (IMAP fluorescent polarisation) vs AKT3. The conditions noted are these: activated AKT3, FAM Crosstide substrate. The essentials: as §1

This passage reports IC50 results from patent US20120309739A1, “AKT / PKB INHIBITORS” (ALMAC DISCOVERY LIMITED, priority 2009, published 2012).

T1 sequence (P31749 whole entry): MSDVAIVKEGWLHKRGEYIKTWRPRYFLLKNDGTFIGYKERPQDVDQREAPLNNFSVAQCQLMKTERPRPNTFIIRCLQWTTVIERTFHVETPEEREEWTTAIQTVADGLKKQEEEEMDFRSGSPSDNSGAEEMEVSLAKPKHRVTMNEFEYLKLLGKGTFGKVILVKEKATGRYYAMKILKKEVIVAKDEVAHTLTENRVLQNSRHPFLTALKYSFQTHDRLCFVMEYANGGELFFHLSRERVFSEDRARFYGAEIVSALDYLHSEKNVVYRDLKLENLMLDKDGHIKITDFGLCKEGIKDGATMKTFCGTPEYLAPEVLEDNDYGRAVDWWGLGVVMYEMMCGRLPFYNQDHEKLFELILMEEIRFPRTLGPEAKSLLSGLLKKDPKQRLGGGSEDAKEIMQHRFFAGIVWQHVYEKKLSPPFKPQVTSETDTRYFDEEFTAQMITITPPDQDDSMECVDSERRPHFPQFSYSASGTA
T2 sequence (P31751 whole entry): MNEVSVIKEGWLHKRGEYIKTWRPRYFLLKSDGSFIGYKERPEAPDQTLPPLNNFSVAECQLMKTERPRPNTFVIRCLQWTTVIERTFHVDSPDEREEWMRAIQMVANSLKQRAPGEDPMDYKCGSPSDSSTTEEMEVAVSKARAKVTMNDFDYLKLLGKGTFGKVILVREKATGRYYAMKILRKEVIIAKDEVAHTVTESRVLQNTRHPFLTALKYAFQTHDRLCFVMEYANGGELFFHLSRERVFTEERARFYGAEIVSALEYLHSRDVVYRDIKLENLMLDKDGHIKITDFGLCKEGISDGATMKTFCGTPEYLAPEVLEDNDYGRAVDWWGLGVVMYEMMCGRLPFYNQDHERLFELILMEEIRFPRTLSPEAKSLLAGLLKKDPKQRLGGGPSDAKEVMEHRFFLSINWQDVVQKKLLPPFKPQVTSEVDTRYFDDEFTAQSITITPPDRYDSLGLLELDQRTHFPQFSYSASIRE
T3 sequence (Q9Y243 whole entry): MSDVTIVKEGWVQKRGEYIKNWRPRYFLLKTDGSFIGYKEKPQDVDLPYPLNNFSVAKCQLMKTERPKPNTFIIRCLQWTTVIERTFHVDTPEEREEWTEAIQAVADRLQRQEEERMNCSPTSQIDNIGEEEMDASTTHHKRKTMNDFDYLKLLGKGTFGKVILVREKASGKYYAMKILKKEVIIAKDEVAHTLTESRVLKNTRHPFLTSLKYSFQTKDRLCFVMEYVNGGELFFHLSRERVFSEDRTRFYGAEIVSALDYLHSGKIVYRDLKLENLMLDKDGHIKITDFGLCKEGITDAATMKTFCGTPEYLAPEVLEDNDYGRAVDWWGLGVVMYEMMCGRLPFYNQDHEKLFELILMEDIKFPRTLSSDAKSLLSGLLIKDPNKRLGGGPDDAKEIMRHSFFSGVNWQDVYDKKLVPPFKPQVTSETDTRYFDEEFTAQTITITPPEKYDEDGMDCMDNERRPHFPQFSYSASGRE

What is called IC50 is the concentration at which inhibition is half-maximal. For `COc1nc(OC)c2c(-c3ccccc3)c(-c3ccc(C4(N)CCC4)cc3)oc2n1` [Example 49, 1-(4-(2,4-Dimethoxy-5-phenylfuro[2,3-d]pyrimidin-6-yl)phenyl)cyclobutanamine], the IC50 is no more than 100 nM in assay [1], 100 to 1000 nM in assay [2] and greater than 10000 nM in assay [3].
For `CNc1ncc2c(-c3ccccc3)c(-c3ccc(C4(N)CCC4)cc3)oc2n1` [Example 55, 6-(4-(1-Aminocyclobutyl)phenyl)-N-methyl-5-phenylfuro[2,3-d]pyrimidin-2-amine], the IC50 in assay [1] is no more than 100 nM; in assay [2] it was 100 to 1000 nM; in assay [3], greater than 10000 nM.
On the same counts, the results for `Cc1n[nH]c(C)c1-c1cnc2oc(-c3ccc(C4(N)CCC4)cc3)c(-c3ccccc3)c2n1` [Example 143, 1-(4-(2-(3,5-Dimethyl-1H-pyrazol-4-yl)-7-phenylfuro[2,3-b]pyrazin-6-yl)phenyl)cyclobutanamine] are 1000 to 10000 nM, 1000 to 10000 nM and greater than 10000 nM.
Regarding `NC1(c2ccc(-c3oc4nc(NCCO)nc(OCCF)c4c3-c3ccccc3)cc2)CCC1` [Example 111, 2-((6-(4-(1-Aminocyclobutyl)phenyl)-4-(2-fluoroethoxy)-5-phenylfuro[2,3-d]pyrimidin-2-yl)amino)ethanol], the IC50 in assay [1] is no more than 100 nM; in assay [2], 100 to 1000 nM; in assay [3], 1000 to 10000 nM.
For `COc1nc(N2CC[C@H](O)C2)nc2oc(-c3ccc(C4(N)CCC4)cc3)c(-c3ccccc3)c12` [Example 35, (S)-1-(6-(4-(1-Aminocyclobutyl)phenyl)-4-methoxy-5-phenylfuro[2,3-d]pyrimidin-2-yl)pyrrolidin-3-ol] the same measures were 100 to 1000 nM, 100 to 1000 nM and 1000 to 10000 nM.
Take `COc1nc(N2CC(CN)C2)nc2oc(-c3ccc(C4(N)CCC4)cc3)c(-c3ccccc3)c12` [Example 27, 1-(4-(2-(3-(Aminomethyl)azetidin-1-yl)-4-methoxy-5-phenylfuro[2,3-d]pyrimidin-6-yl)phenyl)cyclobutanamine]: the IC50 was 100 to 1000 nM in assay [1], 100 to 1000 nM in assay [2] and 1000 to 10000 nM in assay [3].
As to `N#Cc1ccc2c(-c3ccccc3)c(-c3ccc(C4(N)CCC4)cc3)oc2c1` [Example 25, 2-(4-(1-Aminocyclobutyl)phenyl)-3-phenylbenzofuran-6-carbonitrile], the IC50 was 1000 to 10000 nM in assay [1], 1000 to 10000 nM in assay [2] and greater than 10000 nM in assay [3].
`NC1(c2ccc(-c3oc4c(=O)n(CCF)ccc4c3-c3ccccc3)cc2)CCC1` [Example 130, 2-(4-(1-Aminocyclobutyl)phenyl)-6-(2-fluoroethyl)-3-phenylfuro[2,3-c]pyridin-7(6H)-one]: the IC50 in assay [1] is 1000 to 10000 nM; in assay [2], 100 to 1000 nM; in assay [3] it was greater than 10000 nM.
`NC1(c2ccc(-c3oc4nc(NCCO)n(CC5CC5)c(=O)c4c3-c3ccccc3)cc2)CCC1` [Example 95, 6-(4-(1-Aminocyclobutyl)phenyl)-3-(cyclopropylmethyl)-2-((2-hydroxyethyl)amino)-5-phenylfuro[2,3-d]pyrimidin-4(3H)-one]: the IC50 was 1000 to 10000 nM in assay [1], no more than 100 nM in assay [2] and 1000 to 10000 nM in assay [3].
As for `Cn1cc(-c2cn(CCF)c(=O)c3c(-c4ccccc4)c(-c4ccc(C5(N)CCC5)cc4)oc23)cn1` [Example 113, 2-(4-(1-Aminocyclobutyl)phenyl)-5-(2-fluoroethyl)-7-(1-methyl-1H-pyrazol-4-yl)-3-phenylfuro[3,2-d]pyridin-4(5H)-one], the IC50 in assay [1] was in the range of 100 to 1000 nM; in assay [2], 100 to 1000 nM; in assay [3], 1000 to 10000 nM.
As for `NC1(c2ccc(-c3sc4nc[nH]c(=O)c4c3-c3ccccc3)cc2)CCC1` [Example 16, 6-(4-(1-Aminocyclobutyl)phenyl)-5-phenylthieno[2,3-d]pyrimidin-4(3H)-one], the IC50 in assay [1] was in the range of 1000 to 10000 nM; in assay [2], 100 to 1000 nM; in assay [3], 1000 to 10000 nM.
